Assay results published in the supplement of paper PMC10307832.

Experiments:
Test in all cases: relative viability (nuclei count vs DMSO), 5 days (fraction); higher = more cells survive
[1] = compound: COc1cc2ncn(-c3cc(OCc4ccccc4C(F)(F)F)c(C(N)=O)s3)c2cc1OC + N=C(N)NC(=N)NCCc1ccccc1 [Phenformin] (partner 250 µM)
How it was run: (§1)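 Relative viability divides the nuclei count in treated wells by that in vehicle wells. Lung cancer cell lines were seeded in 1536-well plates, dosed by pin tool the next day, and fixed and stained after 5 days in one step with final 0.05% Triton X-100, 1% formaldehyde and 1 ug/ml Hoechst. Dosing was a single drug or a fixed anchor-drug dose plus five library-drug doses (not always all listed) in √10 steps, and values are medians of duplicate plates imaged at 4×.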

[2] = compound: COc1cc2ncn(-c3cc(OCc4ccccc4C(F)(F)F)c(C(N)=O)s3)c2cc1OC + Nc1nc2[nH]cc(CCc3ccc(C(=O)N[C@@H](CCC(=O)O)C(=O)O)cc3)c2c(=O)[nH]1 [Pemetrexed] (partner 0.2 µM)
How it was run: as §1

[3] = compound: COc1cc2ncn(-c3cc(OCc4ccccc4C(F)(F)F)c(C(N)=O)s3)c2cc1OC + CC(=O)Nc1cccc(-n2c(=O)n(C3CC3)c(=O)c3c(Nc4ccc(I)cc4F)n(C)c(=O)c(C)c32)c1 [Trametinib] (partner 0.02 µM)
How it was run: as §1

[4] = compound: COc1cc2ncn(-c3cc(OCc4ccccc4C(F)(F)F)c(C(N)=O)s3)c2cc1OC + CC1(C)CCC(c2ccc(Cl)cc2)=C(CN2CCN(c3ccc(C(=O)NS(=O)(=O)c4ccc(N[C@H](CCN5CCOCC5)CSc5ccccc5)c(S(=O)(=O)C(F)(F)F)c4)cc3)CC2)C1 [Navitoclax] (partner 0.5 µM)
How it was run: as §1

| Cell Line | relative viability ([1]; first compound 0.05 µM) | relative viability ([1]; first compound 0.1581 µM) | relative viability ([1]; first compound 0.5 µM) | relative viability ([1]; first compound 1.581 µM) | relative viability ([1]; first compound 5 µM) | relative viability ([2]; first compound 0.05 µM) | relative viability ([2]; first compound 0.1581 µM) | relative viability ([2]; first compound 0.5 µM) | relative viability ([2]; first compound 1.581 µM) | relative viability ([2]; first compound 5 µM) | relative viability ([3]; first compound 0.05 µM) | relative viability ([3]; first compound 0.1581 µM) | relative viability ([3]; first compound 0.5 µM) | relative viability ([3]; first compound 1.581 µM) | relative viability ([3]; first compound 5 µM) | relative viability ([4]; first compound 0.05 µM) | relative viability ([4]; first compound 0.1581 µM) | relative viability ([4]; first compound 0.5 µM) | relative viability ([4]; first compound 1.581 µM) | relative viability ([4]; first compound 5 µM) |
| --- | --- | --- | --- | --- | --- | --- | --- | --- | --- | --- | --- | --- | --- | --- | --- | --- | --- | --- | --- | --- |
| HCC-78 | 0.851 | 0.837 | 0.495 | 0.446 | 0.22 | 0.967 | 0.903 | 0.895 | 0.939 | 0.87 | 0.949 | 0.54 | 0.544 | 0.642 | 0.682 | 0.752 | 0.773 | 0.498 | 0.51 | 0.63 |
| NCI-H2405 | 0.437 | 0.274 | 0.29 | 0.322 | 0.246 | 1.12 | 1.01 | 0.399 | 0.377 | 0.367 | 0.672 | 0.412 | 0.47 | 0.367 | 0.311 | 0.931 | 0.69 | 0.16 | 0.0992 | 0.0957 |
| SW 1573 | 0.232 | 0.413 | 0.143 | 0.103 | 0.0927 | 0.839 | 0.742 | 0.594 | 0.149 | 0.136 | 0.545 | 0.56 | 0.41 | 0.11 | 0.0977 | 1.06 | 1.09 | 0.466 | 0.115 | 0.0609 |
| EMC-BAC-2 | 0.545 | 0.528 | 0.465 | 0.215 | 0.142 | 0.459 | 0.446 | 0.441 | 0.338 | 0.311 | 0.977 | 0.689 | 0.872 | 0.629 | 0.298 | 1.2 | 1.14 | 1.07 | 0.766 | 0.178 |
| NCI-H1650 | 0.389 | 0.341 | 0.175 | 0.129 | 0.179 | 0.421 | 0.36 | 0.333 | 0.217 | 0.207 | 0.631 | 0.515 | 0.35 | 0.143 | 0.139 | 1.29 | 1.2 | 0.471 | 0.153 | 0.121 |
| NCI-H647 | 0.537 | 0.509 | 0.101 | 0.0685 | 0.069 | 0.179 | 0.176 | 0.0943 | 0.06 | 0.0757 | 0.544 | 0.388 | 0.279 | 0.0866 | 0.079 | 1.17 | 1.08 | 0.245 | 0.0619 | 0.0475 |
| LCLC-97TM1 | 0.398 | 0.492 | 0.353 | 0.154 | 0.148 | 0.215 | 0.217 | 0.147 | 0.11 | 0.0881 | 0.178 | 0.149 | 0.148 | 0.0713 | 0.0862 | 0.4 | 0.502 | 0.307 | 0.141 | 0.0841 |
| H3255 | 0.365 | 0.37 | 0.282 |  | 0.304 | 0.556 | 0.602 | 0.552 | 0.332 | 0.341 | 0.609 | 0.545 | 0.568 | 0.411 | 0.301 | 0.558 | 0.314 | 0.363 | 0.125 | 0.101 |
| LXF-289 | 0.437 | 0.466 | 0.256 | 0.0678 | 0.0402 | 0.897 | 0.674 | 0.597 | 0.184 | 0.0849 | 0.685 | 0.551 | 0.491 | 0.142 | 0.0968 | 0.852 | 0.72 | 0.192 | 0.104 | 0.0566 |
| NCI-H596 | 0.81 | 0.811 | 0.466 | 0.397 | 0.275 | 0.559 | 0.463 | 0.454 | 0.359 | 0.337 | 0.469 | 0.695 | 0.802 | 0.439 | 0.297 | 0.782 | 0.869 | 0.58 | 0.262 | 0.16 |
| LC-2-ad | 0.527 | 0.578 | 0.313 | 0.274 | 0.316 | 0.244 | 0.281 | 0.248 | 0.213 | 0.171 | 1.02 | 0.821 | 0.662 | 0.211 | 0.188 | 0.359 | 0.209 | 0.0767 | 0.0906 | 0.0667 |
| SK-MES-1 | 0.559 | 0.636 | 0.234 | 0.197 | 0.121 | 0.903 | 0.829 | 0.419 | 0.195 | 0.167 | 0.578 | 0.623 | 0.538 | 0.177 | 0.228 | 1.14 | 1.25 | 0.519 | 0.119 | 0.127 |
| A-427 | 0.336 | 0.277 | 0.25 | 0.151 | 0.0968 | 1.05 | 1.02 | 0.887 | 0.257 | 0.203 | 0.833 | 0.52 | 0.59 | 0.336 | 0.187 | 1.06 | 0.991 | 0.79 | 0.331 | 0.173 |
| NCI-H322M | 0.739 | 0.869 | 0.631 | 0.363 | 0.303 | 0.682 | 0.707 | 0.524 | 0.429 | 0.352 | 0.503 | 0.486 | 0.47 | 0.463 | 0.384 | 1.24 | 1.1 | 0.863 | 0.549 | 0.629 |
| HCC-366 | 0.612 | 0.534 | 0.301 | 0.0215 | 0.0222 | 0.166 | 0.155 | 0.0748 | 0.0321 | 0.0197 | 0.114 | 0.35 | 0.12 | 0.0256 | 0.0157 | 1.03 | 1.03 | 0.313 | 0.0106 | 0.0086 |
| NCI-H1975 | 0.44 | 0.392 | 0.229 | 0.162 | 0.113 | 0.3 | 0.274 | 0.232 | 0.188 | 0.159 | 0.369 | 0.192 | 0.182 | 0.135 | 0.155 | 0.88 | 1.01 | 0.529 | 0.168 | 0.174 |
